In patent US20240190838A1, “LZK-TARGETING DEGRADERS AND METHODS OF USE” (The U.S.A., as represented by the Secretary, Department of …, priority 2020, published 2024):

How the values were obtained:
[1] = tested on: Detroit 562 cells; test: Colony formation assay, Detroit 562; format: cell-based
Protocol: (§1) Crystal violet assays were used to assess relative cell growth and survival after treatment with specific compounds. In general, cells were plated in triplicate in 12-well plates for 24 hours before drug treatments were added using 10% FBS media. The plates were incubated for 14 days, with the media and drug being replaced every 48 hours. The cells were then washed with phosphate-buffered saline and fixed in ice-cold methanol before being stained with 0.5% crystal violet (Sigma-Aldrich) in 25% methanol. Images were taken using a ChemiDoc MP Imaging System (Bio Rad), and for quantification, the crystal violet stain was dissolved in 33% acetic acid, incubated for 20 minutes with shaking, and read at 595 nm using iMark™ Microplate Absorbance Reader (Bio-Rad). Graphs display percent colony formation relative to the DMSO-treated control sample.

[2] = tested on: CDK2 activity in SCC-15 HNSCC cells; test: Live-cell imaging of CDK2 activity and cell cycle in SCC-15 cells; format: cell-based; details: for CDK2 activity over the cell cycle: compared to control
Protocol: Cells were plated in 96-well plates with full growth media more than 24 hours prior to imaging, such that the density would remain sub-confluent until the end of the imaging period. Time-lapse imaging was performed in 290 μL full growth media. Images were taken in CFP and YFP channels every 12 minutes on a Nikon Ti2-E inverted microscope (Nikon) with a 20X 0.45NA objective. Total light exposure time was kept under 600 milliseconds for each time point. Cells were imaged in a humidified, 37° C. chamber at 5% CO2.
All image analyses were performed with custom MATLAB scripts as previously described (Cappell et al., Cell 2016, 166:167-180). In brief, optical illumination bias was empirically derived by sampling background areas across all wells in an imaging session, and was subsequently used to flatten all images. This enabled measurement and subtraction of a global background for each image. Cells were segmented for their nuclei based on H2B-mTurquoise. CDK2 activity was calculated by measuring the nuclear and cytoplasmic fluorescence of the DHB-mVenus protein. Cells were segmented for their cytoplasmic regions by spatially approximating a ring with an inner radius of 2 μm outside of the nuclear mask and an outer radius with a maximum of 10 μm outside of the nuclear mask. Regions within 10 μm of another nucleus were excluded. Cytoplasmic DHB-mVenus was calculated as the median intensity within the cytoplasmic ring, excluding pixel intensities indistinguishable from background.
Mitosis events were automatically identified using H2B-mTurquoise and called at anaphase when one cell split into two daughter cells, each with approximately 45-55% of the size of the mother cell. Cells were considered to have been arrested in the G2 phase if a second mitosis was not detected for more than 30 hours after the first mitosis. Following drug treatment, cells were categorized by their CDK2 activity two hours after anaphase. Cells with high CDK2 activity (defined as greater than 0.6) are considered to have immediately re-entered the cell cycle, cells with transiently low CDK2 activity (defined as less than 0.6 two hours after anaphase but rising to greater than 0.6 within the viewing time) are considered to have entered into a transient G0 state before eventually re-entering the cell cycle, and cells with low CDK2 activity (defined as less than 0.6 within the viewing time) are considered to have entered a prolonged G0 state (Arora et al., Cell Rep 2017, 19:1351-1364).

[3] = tested on: c-MYC; test: c-MYC abundance in CAL33 cells (immunoblot); format: cell-based
Protocol: (§2) Generally, cells were plated in six-well or 35-mm plates for 24 hours, after which doxycycline was added or treatment with specific inhibitor was administered using […] for 48 hours. After appropriate treatment time, cells were washed with ice-cold phosphate-buffered saline without Ca and Mg (Quality Biological) and then lysed on ice with RIPA buffer (50 mM NaCl, 1.0% o IGEPAL® CA-630, 0.5% o sodium deoxycholate, 0.10% SDS, 50 mM Tris, pH 8.0) (Sigma-Aldrich) supplemented with protease inhibitor tablet (Sigma-Aldrich) and phosphatase inhibitor cocktails 2 and 3 (Sigma-Aldrich) followed by centrifugation at 15,000 rpm for 10 minutes at 4° C. Protein concentrations were determined from the cell lysate by using 660 nm Protein Assay Reagent (Pierce). Cell extracts were denatured, subjected to SDS-PAGE, transferred to PVDF membranes (Bio-Rad) and blocked for 2 hours using 5 bovine serum albumin (BSA) in phosphate-buffered saline and 0.10 Tween® 20 (PBS-T). The membranes were incubated with the specific antibodies overnight in […] at 4° C. followed by a 1 hour incubation with the appropriate horseradish peroxidase-conjugated secondary antibodies and signal was detected by chemiluminescence (Thermo Fisher).

[4] = tested on: GOF mutant p53 (R175H); test: GOF mutant p53 abundance in CAL33 cells (immunoblot); format: cell-based
Protocol: as §2

[5] = tested on: BICR56 cells; test: MTS cell viability assay, BICR56; format: cell-based
Protocol: A Cell Titer 96 AQueous One Solution Cell Proliferation Assay (Promega) was used for MTS assays following the manufacturer's protocol. […] MTS was added, cells were incubated for two hours, and absorbance was measured at 490 nm using iMark™ Microplate Absorbance Reader (Bio-Rad). Graphs display percent cell viability relative to the DMSO-treated control sample. EC50 values were determined using GraphPad Prism 8.

[6] = tested on: BEAS-2B cells; test: Colony formation assay, BEAS-2B; format: cell-based, human
Protocol: as §1

[7] = various concentrations, 24 and 48 hours

| Compound | colony formation ([1]; LZK inhibitor 2, concentration not stated) | cell-cycle arrest [2] | fraction of cells entering a quiescent state [2] | CDK2 activity over the cell cycle [2] | c-MYC levels over time ([3]; 500 nM, up to 72 hours) | rescue of loss of c-MYC by LZK^Q240S expression ([3]; CAL33 cells) | GOF-p53 expression levels ([4]; catalytic inhibitor treatment) | IC50 ([5]; 72 hours, read-out: IC50, viability in short-term MTS assay) [nM] | colony formation ([6]; 200 nM, 14 days, cells lacking amplified MAP3K13) | concentration with observed hook effect on c-MYC and GOF-p53 decreases ([3]; 24 hours and 48 hours) [µM] | c-MYC abundance [3, 7] | GOF mutant p53 (R175H) abundance [4, 7] | short-term cell viability [5] | colony formation ([1]; 2.5 μM) | clonogenic growth ([6]; 1 μM for 14 days, control cells) |
| --- | --- | --- | --- | --- | --- | --- | --- | --- | --- | --- | --- | --- | --- | --- | --- |
| CC(=O)N1CCC(c2cc(Nc3cc(C#N)ccn3)nc(N3CCC(F)(F)C3)c2)CC1 [LZK inhibitor 2] | suppressed colony formation | – | – | – | – | – | – | – | – | – | – | – | – | – | – |
| N#Cc1ccnc(Nc2cc(C3CCN(C4COC4)CC3)cc(N3CCC(F)(F)C3)n2)c1 [GNE-3511] | – | caused a G2-phase cell-cycle arrest | increased fraction of cells entering a quiescent state | slower increase in CDK2 activity over the cell cycle | reduction in c-MYC levels that was subsequently maintained for 72 hours | rescued loss in c-MYC levels | did not alter GOF-p53 expression levels | 410 ± 59.6 | only a minor reduction in colony formation | – | – | – | – | – | – |
| Cc1ncsc1-c1ccc([C@H](C)NC(=O)[C@@H]2C[C@@H](O)CN2C(=O)[C@@H](NC(=O)CCCCCCC(=O)N2CCC(c3cc(Nc4cc(C#N)ccn4)nc(N4CCC(F)(F)C4)c3)CC2)C(C)(C)C)cc1 [Compound 3] | – | caused a G2-phase cell-cycle arrest | increased fraction of cells entering a quiescent state | slower increase in CDK2 activity over the cell cycle | – | – | – | – | – | 10 | loss of both GOF mutant p53 (R175H) and c-MYC abundance | loss of both GOF mutant p53 (R175H) and c-MYC abundance | reduced | almost complete loss of colony formation | little effect on control cells |
